The record followed here is US20210094922A1, “Dyes for Analysis of Soluble Protein Aggregates or Misfolded Protein Oligomers” (The Penn State Research Foundation, priority 2018, published 2021).

Assay [1] concerns the target bovine serum albumin and sodium dodecyl sulfate (Bos taurus, UniProt P02769). Briefly: Fluorescence background response to BSA and SDS. The settings on record: incubated with BSA or SDS. Here is the method:
20 µM of fluorophores were incubated in H2O, glycerol, dioxane, BSA (2 mg/mL), or SDS (0.2%). Intensities were normalized against the value in either 100% glycerol as 1 for CCVJ and 4, or dioxane as 1 for SBD. Parameters for fluorescence measurement: SBD (Ex=450 nm/Em=545 nm), CCVJ (Ex=450 nm/Em=500 nm), 4 (Ex=530 nm/Em=630 nm). Error bars: standard error (n=3).

The target in assay [2] is T1, Htt-97Q-Halo (Homo sapiens, UniProt P42858).
T1 construct: using the Huntingtin exon 1 protein (Htt) with expansion of a polyglutamine tract within its N-terminal domain; expressed in transfected cells; host or cells: HEK293T
T1 sequence (P42858 with tags, fused parts or gaps): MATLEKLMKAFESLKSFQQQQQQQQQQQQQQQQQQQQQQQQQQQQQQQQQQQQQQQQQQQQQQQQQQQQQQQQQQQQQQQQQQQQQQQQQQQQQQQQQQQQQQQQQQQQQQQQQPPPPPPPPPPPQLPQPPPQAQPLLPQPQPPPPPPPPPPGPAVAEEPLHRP
Briefly: AggTag imaging of Htt-Halo aggregation in HEK293T cells. The format is cell-based. The settings on record: non-specific binding control. Here is the method: (§1) (a) The dual-probe live cell imaging experiment. Halo-tag fusion proteins were labeled in the presence of both the non-fluorogenic coumarin ligand (1 μM) and 4 (1 µM). The newly synthesized Htt-Halo proteins were equally labeled with either the coumarin ligand or 4. The coumarin ligand is fluorescent both before and after aggregation of Htt-Halo. By contrast, signal of 4 exclusively arises from Htt-Halo aggregates. (b) Dual probes labeling confirms expression of proteins. The Htt Q0-Halo and Htt Q97-Halo proteins were transiently transfected and expressed in HEK293T cells for 24 h, in the presence of 1 μM coumarin Halo-Tag ligand and 1 μM of 4. In cells expressing Htt Q97-Halo proteins, punctate structures in the coumarin channel coincided with the turn-on fluorescence of 4. […] (c) The Htt Q97 protein, without a Halo-Tag, was transiently transfected and expressed in HEK293T cells for 24 h, in the presence of 1 μM of 4. No turn-on fluorescence of 4 was found. Red: fluorescence from the SOD1(V31A)-Halo-4 conjugate. Blue: coumarin Halo-Tag ligand in (a) or nucleus stained by Hoechst 33342 in (b). Scale bar: 10 μm. (d) Fluorescent intensity of cell lysates from samples as represented in FIG. 4d. Error bars: standard error (n=3).
(§2) Confocal microscope imaging. The HEK293T cells were seeded at 25% confluency 24 h prior to transfection in poly-D-lysine coated 35 mm glass bottom dishes (MatTek Corporation). Cells were grown in DMEM media supplemented with 10% FBS and Penicillin-Streptomycin antibiotics until they reached 50-60% confluency. Transfection was carried out using X-tremeGene™ 9 DNA transfection reagent (Roche) according to the manufacturer's instructions. Proteins were expressed for 24 h prior to analyses. To label proteins with Halo-Tag fusion, protein expression was carried out in the presence of 1 μM 4 or 1 μM TMR Halo-Tag ligand to form covalent conjugate with the Halo-Tag domain. For a dual-probe labeling scheme, 1 μM 4 and 1 μM coumarin Halo-Tag ligand to simultaneously form covalent conjugate with the Halo-Tag domain.
(§3) To wash off unbound Halo ligands, the cells were washed extensively by replacing media with fresh DMEM and incubating for 30 min at 37° C. For confocal fluorescence imaging with either 4-labeled Halo fusion, TMR-labeled Halo fusion, EGFP fusion, or mCherry fusion proteins, DMEM media was replaced with FluoroBrite™ DMEM media (ThermoFisher) supplemented with 10% FBS, and Hoechst 33342 (0.1 μg/mL). For confocal fluorescence imaging with either dual-probe labeled Halo fusion with 4 and coumarin ligand, DMEM media was replaced with FluoroBrite™ DMEM media (ThermoFisher) supplemented with 10% FBS. The samples were incubated for 30 min prior to imaging. Media was replaced with fresh FluoroBrite™ DMEM media (ThermoFisher) supplemented with 10% FBS prior to imaging. Confocal images were obtained using Olympus FluoView™ FV1000 confocal microscope. The EGFP fluorescence was visualized using blue argon (488 nm) laser. Nuclear staining and coumarin fluorescence was visualized using violet laser (405 nm). Fluorescence of TMR and 4 were visualized using green HeNe laser (543 nm).

For assay [3], the target named is T2, Htt-97Q-Halo (UniProt P0A3G2+P42858, A155T/A167V/A172T/A224E/C128F/C176G/D78G/E160K/E257K/H272N/K175M/K195N/L47V/L88M/N227D/S58T/T264A/Y273L/Y87F).
T2 construct: using the Huntingtin exon 1 protein (Htt) with expansion of a polyglutamine tract within its N-terminal domain; expressed in transfected cells; host or cells: HEK293T
T2 sequence (P42858+P0A3G2 fused with the stated changes): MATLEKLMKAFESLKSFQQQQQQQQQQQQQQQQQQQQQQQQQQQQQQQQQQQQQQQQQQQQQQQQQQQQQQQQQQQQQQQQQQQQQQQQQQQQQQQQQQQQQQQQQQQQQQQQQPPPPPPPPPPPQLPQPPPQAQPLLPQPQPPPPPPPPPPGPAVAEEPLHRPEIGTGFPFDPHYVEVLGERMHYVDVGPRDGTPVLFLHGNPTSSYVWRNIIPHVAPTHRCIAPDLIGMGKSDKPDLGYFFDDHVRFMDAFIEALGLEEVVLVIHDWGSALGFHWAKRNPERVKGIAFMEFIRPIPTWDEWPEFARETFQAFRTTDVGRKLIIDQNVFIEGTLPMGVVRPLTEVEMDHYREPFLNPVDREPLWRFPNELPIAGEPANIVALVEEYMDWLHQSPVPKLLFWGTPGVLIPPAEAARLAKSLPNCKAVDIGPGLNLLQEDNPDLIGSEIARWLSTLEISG
Described as above. The format is cell-based, human. Here is the method:
as §1, §2, §3

bovine serum albumin and sodium dodecyl sulfate, sequence (P02769 25-607): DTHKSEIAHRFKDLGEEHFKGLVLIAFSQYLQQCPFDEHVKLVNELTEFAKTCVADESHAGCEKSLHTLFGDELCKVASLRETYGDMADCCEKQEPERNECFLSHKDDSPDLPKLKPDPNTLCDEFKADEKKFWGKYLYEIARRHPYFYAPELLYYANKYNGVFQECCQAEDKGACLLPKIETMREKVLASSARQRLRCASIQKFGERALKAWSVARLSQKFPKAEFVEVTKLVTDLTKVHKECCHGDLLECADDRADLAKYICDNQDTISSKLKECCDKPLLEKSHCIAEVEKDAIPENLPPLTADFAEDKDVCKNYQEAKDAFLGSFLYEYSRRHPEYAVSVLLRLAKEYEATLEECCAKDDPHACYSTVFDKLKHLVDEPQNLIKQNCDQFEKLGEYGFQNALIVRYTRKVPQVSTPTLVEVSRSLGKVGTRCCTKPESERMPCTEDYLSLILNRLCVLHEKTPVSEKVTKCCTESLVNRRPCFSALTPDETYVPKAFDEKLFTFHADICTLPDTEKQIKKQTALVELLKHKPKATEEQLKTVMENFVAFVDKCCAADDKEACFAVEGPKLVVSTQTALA

As for `CN(C)c1ccc(/C=C2N=C(/C=C/c3ccc(N(CCO)CCO)cc3)N(CC(=O)N[C@H]3CC[C@H](C(=O)NCCOCCOCCCCCCCl)CC3)C\2=O)cc1` [Compound 4, (1r,4r)-4-(2-((Z)-2-((E)-4-(bis(2-hydroxyethyl)amino)styryl)-4-(4-(dimethylamino)benzylidene)-5-oxo-4,5-dihydro-1H-imidazol-1-yl)acetamido)-N-(2-(2-((6-chlorohexyl)oxy)ethoxy)ethyl)cyclohexanecarboxamide], the “fluorescent background signal versus SBD and CCVJ” value in assay [1] is listed as “substantially lower fluorescent background signal”. Also, the “fluorescence in cells expressing Htt-97Q without Halo-Tag” value at Htt-97Q-Halo [2] is reported as “no fluorescent signal”. Also, the “turn-on fluorescence in cells expressing Htt-97Q-Halo” value at Htt-97Q-Halo [3] was “observed as puncta without any background diffuse fluorescence”. In addition, the “origin of Htt-97Q-Halo fluorescence after fractionation of lysate” value on Htt-97Q-Halo [3] (cell lysate) is on record as “primarily originated from the insoluble fraction”.
